Data published in patent US12600696B2 (XENIOPRO GMBH, priority 2017, dated 2026).

System: HL-60 cells (human acute myeloid leukemia cells)
Experiment: alamarBlue proliferation assay with HL-60 cells
Type: cell-based
Details: 120 h, 5 days, relative to DMSO baseline level of 1.0, read-out: AVEw, weighted arithmetic mean of normalized fluorescence intensity values (Activity Range), HL-60 proliferation
Protocol: The antiproliferative activities of compounds falling under formula I, formula II, formula III, formula IV and formula V were investigated on cells or cell lines originating from a disorder of the myeloid cell compartment, the neuroendocrine system, the cervix, and the mucosal epithelium, as well as from the skin epithelium. To this end, HL-60 cells, TT cells, HeLa cells, CAL-27 cells and human primary epidermal keratinocytes (HPEK) were seeded into 96-well plates suitable for fluorescence assays (CORNING #3598) at following initial cell numbers: 1000 cells per well for HL-60; 9000 cells per well for TT; 2000 cells per well for HeLa, 2000 cells per well for CAL-27, 2000 cells per well for HPEK. The cells were treated with compounds at indicated final concentrations (diluted from the 1000× stock-solutions in DMSO to a final DMSO concentration of 0.1% v/v) or with the empty carrier DMSO at 0.1% v/v as control for 5 days. At day 5 after starting the treatments the cells were subjected to the alamarBlue® Proliferation Assay (Bio-Rad Serotec GmbH, BUF012B) according to the protocol of the manufacturer. The readout was taken with a multi-well plate-reader in the fluorescence mode with applying a filter for excitation at 560 nm (band width 10 nm) and for emission at 590 nm (band width 10 nm). Resveratrol (RES) treatment was included as control for growth inhibition.
The assays were performed in duplicate or more replicates of independent single experiments each containing a six-fold replicate for every condition. For every individual plate, the measured fluorescence intensity values of the conditions with compound treatment were normalized against the corresponding equally weighted arithmetic mean of the fluorescence intensity values of the six DMSO treated control wells in order to obtain the relative values to a baseline level of 1.0. The statistical calculations were performed in analogy to the luciferase assay as described above. To this end, two independent outlier analyses were performed according to the methods by Peirce and Chauvenet (Ross, Journal of Engineering Technology 2003, 1-12). Outliers confirmed by at least one of the methods were excluded from the calculations but not more than one value out of six per compound within a single experiment. The weighted arithmetic mean AVEw for each compound was calculated from the normalized values over all independent replicates of the single experiments comprising the six replicates each. The corresponding standard deviation for the weighted arithmetic mean was calculated according to the method described by Bronstein et al. (Bronstein, Semendjajew, Musiol, Mühlig, Taschenbuch der Mathematik, 5th edition 2001 (German), publisher: Verlag Harri Deutsch, Frankfurt am Main and Thun) and was combined with the Gauß′ error propagation associated with the performed calculation for the normalization. The resulting standard deviation is herein referred to as “combined standard deviation”.
HL-60 cells were cultivated according to the protocol of the provider in RPMI 1640 medium (Fisherscientific, #11554526) containing 10% fetal bovine serum (Fisherscientific, #15517589).
A compound is considered as a growth inhibitor of HL-60 cells, if—at a reference concentration of 20 μM—the weighted arithmetic mean of the normalized fluorescence intensity values after addition of the corresponding combined standard deviation amounts to 0.9 or lower, in particular to 0.8 or lower, 0.7 or lower, 0.6 or lower, 0.4 or lower, and 0.2 or lower, relative to the overall basis level of 1.0. The overall basis level was calculated as the weighted arithmetic mean of all normalized values from the DMSO control measurements in analogy to the calculations performed for the test-compounds. The corresponding combined standard deviation for the DMSO values amounts to less than 1·10^−2.

COC(=O)c1ccc(Oc2ccc(C3(C(F)(F)C(F)(F)F)CC3)cc2)nc1 [Compound 740, methyl 6-(4-(1-(perfluoroethyl)cyclopropyl)phenoxy)nicotinate]
activity at 20 µM: 80 to 90%

CN(C)C(=O)c1cnc(Oc2ccc(C34CC5CC(CC(C5)C3)C4)cc2)c(F)c1 [Compound 700, 6-(4-((3r,5r,7r)-adamantan-1-yl)phenoxy)-5-fluoro-N,N-dimethylnicotinamide]
activity at 20 µM: 60 to 70%

CN(C)C(=O)c1ccc(Oc2ccc(C3(C(F)(F)C(F)(F)F)CC3)cc2)nc1 [Compound 821, N,N-dimethyl-6-(4-(1-(perfluoroethyl)cyclopropyl)phenoxy)nicotinamide]
activity at 20 µM: 60 to 70%

CN(C)C(=O)c1ccc(Oc2ccc(C3(C(F)(F)C(F)(F)F)CC3)cc2)cc1 [Compound 785, N,N-dimethyl-4-(4-(1-(perfluoroethyl)cyclopropyl)phenoxy)benzamide]
activity at 20 µM: 70 to 80%

CNC(=O)c1cnc(Oc2ccc(C34CC5CC(CC(C5)C3)C4)cc2)c(F)c1 [Compound 674, 6-(4-((3r,5r,7r)-adamantan-1-yl)phenoxy)-5-fluoro-N-methylnicotinamide]
activity at 20 µM: 70 to 80%

CCC(C)(C)c1ccc(Oc2ccc(C(=O)NC)cn2)cc1 [Compound 298, N-methyl-6-(4-(tert-pentyl)phenoxy)nicotinamide]
activity at 20 µM: 80 to 90%

CCc1ccc(Oc2ccc(C(=O)O)cc2)cc1 [Compound 002, 4-(4-ethylphenoxy)benzoic acid]
activity at 20 µM: 80 to 90%

CN(C)C(=O)c1ccc(Oc2ccc(C3CCCCC3)cc2)c(F)c1 [Compound 592, 4-(4-cyclohexylphenoxy)-3-fluoro-N,N-dimethylbenzamide]
activity at 20 µM: 80 to 90%

CCCCc1ccc(Oc2ccc(C(=O)N(C)C)cc2)cc1 [Compound 218, 4-(4-butylphenoxy)-N,N-dimethylbenzamide]
activity at 20 µM: 40 to 60%

CCOC(=O)c1ccc(Oc2ccc(C3(C(F)(F)F)CC3)cc2)c(F)c1 [Compound 723, ethyl 3-fluoro-4-(4-(1-(trifluoromethyl)cyclopropyl)phenoxy)benzoate]
activity at 20 µM: 80 to 90%

CCCCCc1ccc(Oc2ccc(C(=O)N(C)C)cn2)cc1 [Compound 320, N,N-dimethyl-6-(4-pentylphenoxy)nicotinamide]
activity at 20 µM: 40 to 60%

CCOC(=O)c1ccc(Oc2ccc(C(C)C)cc2)cc1 [Compound 054, ethyl 4-(4-isopropylphenoxy)benzoate]
activity at 20 µM: 80 to 90%

CCC(C)(C)c1ccc(Oc2ncc(C(=O)N(C)C)cc2F)cc1 [Compound 685, 5-fluoro-N,N-dimethyl-6-(4-(tert-pentyl)phenoxy)nicotinamide]
activity at 20 µM: 70 to 80%

CCOC(=O)c1cnc(Oc2ccc(C34CC5CC(CC(C5)C3)C4)cc2)c(F)c1 [Compound 492, ethyl 6-(4-((3r,5r,7r)-adamantan-1-yl)phenoxy)-5-fluoronicotinate]
activity at 20 µM: 60 to 70%

COC(=O)c1ccc(Oc2ccc(C3(C(F)(F)F)CC3)cc2)nc1 [Compound 739, methyl 6-(4-(1-(trifluoromethyl)cyclopropyl)phenoxy)nicotinate]
activity at 20 µM: 80 to 90%

O=C(O)c1ccc(Oc2ccc(C3CC4CCC3CC4)cc2)nc1 (stereo not shown) [Compound 087, 6-(4-((1s,4s)-bicyclo[2.2.2]octan-2-yl)phenoxy)nicotinic acid]
activity at 20 µM: 80 to 90%

CCOC(=O)c1cnc(Oc2ccc(C3CCCCC3)cc2)c(F)c1 [Compound 488, ethyl 6-(4-cyclohexylphenoxy)-5-fluoronicotinate]
activity at 20 µM: 70 to 80%

CN(C)C(=O)c1ccc(Oc2ccc(C3(C(F)(F)F)CC3)cc2Cl)cc1 [Compound 792, 4-(2-chloro-4-(1-(trifluoromethyl)cyclopropyl)phenoxy)-N,N-dimethylbenzamide]
activity at 20 µM: 80 to 90%

NC(=O)c1ccc(Oc2ccc(C3(C(F)(F)F)CC3)cc2)nc1 [Compound 793, 6-(4-(1-(trifluoromethyl)cyclopropyl)phenoxy)nicotinamide]
activity at 20 µM: 80 to 90%

CCC(C)(C)c1ccc(Oc2ccc(C(=O)N(C)C)cc2F)cc1 [Compound 581, 3-fluoro-N,N-dimethyl-4-(4-(tert-pentyl)phenoxy)benzamide]
activity at 20 µM: 70 to 80%

CCOC(=O)c1cnc(Oc2ccc(C(C)(C)CC)cc2)c(F)c1 [Compound 477, ethyl 5-fluoro-6-(4-(tert-pentyl)phenoxy)nicotinate]
activity at 20 µM: 80 to 90%

CCc1ccc(Oc2ccc(C(=O)NO)cc2)cc1 [Compound 165, 4-(4-ethylphenoxy)-N-hydroxybenzamide]
activity at 20 µM: 80 to 90%

CN(C)C(=O)c1ccc(Oc2ccc(C3(C(F)(F)F)CC3)cc2)c(F)c1 [Compound 786, 3-fluoro-N,N-dimethyl-4-(4-(1-(trifluoromethyl)cyclopropyl)phenoxy)benzamide]
activity at 20 µM: 70 to 80%

CCC(C)(C)c1ccc(Oc2ccc(C(=O)N(C)C)cc2)cc1 [Compound 223, N,N-dimethyl-4-(4-(tert-pentyl)phenoxy)benzamide]
activity at 20 µM: 70 to 80%

O=C(O)c1cnc(Oc2ccc(C(F)(F)F)cc2)c(F)c1 [Compound 427, 5-fluoro-6-(4-(trifluoromethyl)phenoxy)nicotinic acid]
activity at 20 µM: 80 to 90%

O=C(O)c1ccc(Oc2ccc(C3(C(F)(F)F)CC3)cc2Cl)nc1 [Compound 738, 6-(2-chloro-4-(1-(trifluoromethyl)cyclopropyl)phenoxy)nicotinic acid]
activity at 20 µM: 80 to 90%

CCOC(=O)c1ccc(Oc2ccc(C3(C(F)(F)F)CC3)cc2Cl)nc1 [Compound 756, ethyl 6-(2-chloro-4-(1-(trifluoromethyl)cyclopropyl)phenoxy)nicotinate]
activity at 20 µM: 70 to 80%

CCOC(=O)c1ccc(Oc2ccc(C34CC5CC(CC(C5)C3)C4)cc2)c(F)c1 [Compound 414, ethyl 4-(4-((3r,5r,7r)-adamantan-1-yl)phenoxy)-3-fluorobenzoate]
activity at 20 µM: 60 to 70%

CCC(C)(C)c1ccc(Oc2ccc(C(N)=O)cn2)cc1 [Compound 248, 6-(4-(tert-pentyl)phenoxy)nicotinamide]
activity at 20 µM: 80 to 90%

CNC(=O)c1ccc(Oc2ccc(C3(C(F)(F)F)CC3)cc2)nc1 [Compound 811]
activity at 20 µM: 80 to 90%

CCCCCc1ccc(Oc2ccc(C(N)=O)cn2)cc1 [Compound 245, 6-(4-pentylphenoxy)nicotinamide]
activity at 20 µM: 80 to 90%
